Columns and labels:
[1] = target: T1, Helios (Homo sapiens, UniProt Q96SW2+Q9UKS7); assay: Helios Cellular Degradation Assay (flow cytometry, Helios-PE antibody staining, 72 h); format: cell-based; conditions: Jurkat cells, 72 h incubation, flow cytometry; for Dmax: Jurkat, read-out: Helios Dmax
T1 construct: fluorescently labelled antibodies against Helios and Ikaros; endogenous in cells; host or cells: Jurkat cells
Method: (§1) Helios Cellular Degradation Assay
(§2) Jurkat cells were plated at 80,000 cells/well in 40 μL RPMI+10% FBS in a 384 well cell culture plate prior to using acoustic dispensing technology for adding compound of interest. Cell cultures were incubated for 72 h at 37° C. and 5% CO2. In order to facilitate analysis, cell cultures were spun down at 200 rpm for 5 min and the supernatant was discarded. After shaking the plate to dislodge the cell pellet, cells were resuspended in 50 μL of Fixation Buffer (eBioScience FoxP3 buffer set 0000) for 60 min at room temperature. After centrifuging and discarding the supernatant, cells were permeabilized with 50 μL of Permeabilization buffer (eBioScience FoxP3 buffer set 00-5523-00) for 10 min at room temperature. Following permeabilization, cells were spun down and the supernatant was replaced with 20 μL fluorescently labelled antibodies against Helios and Ikaros or corresponding Isotype controls in 1× Permeabilization buffer (Ikaros-Alexa488 [Biolegend, Cat #368408, 1:50], Helios-PE [CST, Cat #29360, 1:50]) and staining reactions were incubated for 1 h at room temperature; protected from light. Subsequently, 30 μL of 1× Permeabilization buffer was added prior to centrifuging the cells and discarding the supernatant. Stained cells were resuspended in 25 μL of flow cytometry staining buffer (PBS+0.2% BSA) and analyzed using an Intellicyt Ique Plus flow cytometer.
as §2, with “00-5523-00)” for “0000)”

[2] = target: T2, Ikaros (Homo sapiens, UniProt Q13422); assay: Helios Cellular Degradation Assay, Ikaros readout (flow cytometry, Ikaros-Alexa488 antibody staining, 72 h); format: cell-based; conditions: Jurkat cells, 72 h incubation, flow cytometry; for Dmax: Jurkat, read-out: Ikaros Dmax
T2 construct: fluorescently labelled antibodies against Helios and Ikaros; endogenous in cells; host or cells: Jurkat cells
T2 sequence (Q96SW2 whole entry partner): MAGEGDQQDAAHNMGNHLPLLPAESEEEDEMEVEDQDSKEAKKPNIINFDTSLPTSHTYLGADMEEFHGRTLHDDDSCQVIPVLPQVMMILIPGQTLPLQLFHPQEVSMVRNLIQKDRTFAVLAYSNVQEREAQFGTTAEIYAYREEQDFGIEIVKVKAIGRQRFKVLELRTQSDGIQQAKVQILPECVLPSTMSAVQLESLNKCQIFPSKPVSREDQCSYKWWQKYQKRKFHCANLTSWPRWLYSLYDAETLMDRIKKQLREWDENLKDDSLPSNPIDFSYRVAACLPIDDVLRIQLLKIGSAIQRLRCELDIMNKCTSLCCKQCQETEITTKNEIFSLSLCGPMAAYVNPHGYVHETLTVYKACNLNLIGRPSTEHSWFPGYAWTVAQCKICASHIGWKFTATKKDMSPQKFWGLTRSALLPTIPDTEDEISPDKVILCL
T2 sequence (Q16531 whole entry partner): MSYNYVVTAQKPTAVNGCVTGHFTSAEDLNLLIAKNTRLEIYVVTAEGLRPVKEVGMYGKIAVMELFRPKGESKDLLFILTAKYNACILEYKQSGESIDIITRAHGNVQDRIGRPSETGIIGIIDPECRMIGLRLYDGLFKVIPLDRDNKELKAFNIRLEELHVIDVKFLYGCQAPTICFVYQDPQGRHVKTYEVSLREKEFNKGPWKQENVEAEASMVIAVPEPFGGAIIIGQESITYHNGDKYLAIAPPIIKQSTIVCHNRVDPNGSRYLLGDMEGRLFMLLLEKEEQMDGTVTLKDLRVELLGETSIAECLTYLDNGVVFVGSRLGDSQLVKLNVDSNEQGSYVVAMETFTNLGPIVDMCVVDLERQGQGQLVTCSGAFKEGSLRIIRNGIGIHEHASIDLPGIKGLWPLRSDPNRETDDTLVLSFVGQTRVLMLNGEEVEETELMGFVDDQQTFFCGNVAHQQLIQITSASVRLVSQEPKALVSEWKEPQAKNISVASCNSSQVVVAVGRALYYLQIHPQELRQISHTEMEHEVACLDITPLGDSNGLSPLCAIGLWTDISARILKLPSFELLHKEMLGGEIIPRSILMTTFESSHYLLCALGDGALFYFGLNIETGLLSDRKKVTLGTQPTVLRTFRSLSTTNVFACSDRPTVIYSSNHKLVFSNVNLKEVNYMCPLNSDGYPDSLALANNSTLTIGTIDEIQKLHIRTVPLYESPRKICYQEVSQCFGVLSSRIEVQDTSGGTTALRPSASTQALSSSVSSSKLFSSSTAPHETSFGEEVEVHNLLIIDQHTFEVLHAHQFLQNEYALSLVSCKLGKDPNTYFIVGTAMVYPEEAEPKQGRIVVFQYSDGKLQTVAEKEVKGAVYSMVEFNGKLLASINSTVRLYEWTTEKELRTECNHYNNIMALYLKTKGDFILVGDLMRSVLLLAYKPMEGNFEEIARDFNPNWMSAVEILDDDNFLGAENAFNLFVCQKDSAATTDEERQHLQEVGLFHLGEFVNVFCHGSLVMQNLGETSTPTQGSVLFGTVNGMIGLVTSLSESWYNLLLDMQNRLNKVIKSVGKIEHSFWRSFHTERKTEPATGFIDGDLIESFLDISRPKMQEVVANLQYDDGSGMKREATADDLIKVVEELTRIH
T2 sequence (Q13422 whole entry): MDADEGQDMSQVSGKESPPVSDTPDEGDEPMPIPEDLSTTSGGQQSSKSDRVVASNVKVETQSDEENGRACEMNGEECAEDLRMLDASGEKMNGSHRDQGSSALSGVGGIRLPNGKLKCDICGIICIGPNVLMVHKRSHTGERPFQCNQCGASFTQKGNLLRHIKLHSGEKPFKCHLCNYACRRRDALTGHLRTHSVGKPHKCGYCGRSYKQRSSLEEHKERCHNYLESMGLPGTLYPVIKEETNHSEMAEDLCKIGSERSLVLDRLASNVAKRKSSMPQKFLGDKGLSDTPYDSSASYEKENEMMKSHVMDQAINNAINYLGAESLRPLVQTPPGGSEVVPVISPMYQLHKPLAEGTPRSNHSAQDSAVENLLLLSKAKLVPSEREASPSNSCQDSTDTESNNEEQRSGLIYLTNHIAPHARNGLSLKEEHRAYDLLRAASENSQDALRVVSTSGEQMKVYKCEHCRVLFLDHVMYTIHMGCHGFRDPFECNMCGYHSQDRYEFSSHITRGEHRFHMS
Method: as §1, §2
as §2, with “00-5523-00)” for “0000)”

T1 sequence (Q9UKS7 whole entry): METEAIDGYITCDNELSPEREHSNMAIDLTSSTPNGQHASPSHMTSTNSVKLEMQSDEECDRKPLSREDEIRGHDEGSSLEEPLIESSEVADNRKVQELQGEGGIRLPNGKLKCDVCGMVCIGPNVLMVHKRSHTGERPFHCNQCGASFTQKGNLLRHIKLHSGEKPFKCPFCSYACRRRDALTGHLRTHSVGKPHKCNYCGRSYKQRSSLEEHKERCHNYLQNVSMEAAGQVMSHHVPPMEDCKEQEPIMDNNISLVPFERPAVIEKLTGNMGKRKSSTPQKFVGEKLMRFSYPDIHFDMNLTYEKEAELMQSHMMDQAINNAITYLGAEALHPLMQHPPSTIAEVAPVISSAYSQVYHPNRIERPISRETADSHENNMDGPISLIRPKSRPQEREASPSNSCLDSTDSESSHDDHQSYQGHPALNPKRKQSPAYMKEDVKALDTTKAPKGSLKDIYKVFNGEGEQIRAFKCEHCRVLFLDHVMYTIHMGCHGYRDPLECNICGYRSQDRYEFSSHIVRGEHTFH
T1 sequence (Q96SW2 whole entry): as the sequence (Q96SW2 whole entry partner) above
T1 sequence (Q16531 whole entry partner): as the sequence (Q16531 whole entry partner) above

DC50 [1] [nM] | Dmax [1] [%] | DC50 [2] [nM] | Dmax [2] [%] | Helios Dmax [1] [%] | SMILES
9 | 103 | > 10000 | 23 |  | O=C1CCC(N2Cc3cc(-c4cc(CNCCc5ccccc5Cl)ccn4)ccc3C2=O)C(=O)N1 (centres unmarked) [Example 93, 3-(5-(4-(((2-chlorophenethyl)amino)methyl)pyridin-2-yl)-1-oxoisoindolin-2-yl)piperidine-2,6-dione]
7510 |  | > 10000 | 6 | 55 | CN1CCC(N(C)Cc2ccnc(-c3ccc4c(c3)CN(C3CCC(=O)NC3=O)C4=O)c2)C1 (centres unmarked) [Example 29, 3-(5-(4-((methyl(1-methylpyrrolidin-3-yl)amino)methyl)pyridin-2-yl)-1-oxoisoindolin-2-yl)piperidine-2,6-dione]
167 | 87 | > 10000 | 4 |  | CCCCN(C)Cc1ccnc(-c2ccc3c(c2)CN(C2CCC(=O)NC2=O)C3=O)c1 (centres unmarked) [Example 9, 3-(5-(4-((butyl(methyl)amino)methyl)pyridin-2-yl)-1-oxoisoindolin-2-yl)piperidine-2,6-dione]
213 | 61 | > 10000 | 17 |  | O=C1CCC(N2Cc3cc(-c4cc(CNCC(c5ccccc5)c5ccccc5)ccn4)ccc3C2=O)C(=O)N1 (centres unmarked) [Example 90, 3-(5-(4-(((2,2-diphenylethyl)amino)methyl)pyridin-2-yl)-1-oxoisoindolin-2-yl)piperidine-2,6-dione]
24 | 84 | > 10000 | 6 |  | O=C1CCC(N2Cc3cc(-c4cc(CN5CCC5c5ccccc5)c(Cl)cn4)ccc3C2=O)C(=O)N1 (centres unmarked) [Example 187, 3-(5-(5-chloro-4-((2-phenylazetidin-1-yl)methyl)pyridin-2-yl)-1-oxoisoindolin-2-yl)piperidine-2,6-dione]
> 10000 | 35 | > 10000 | 4 |  | CN(C)CCN(C)Cc1ccnc(-c2ccc3c(c2)CN(C2CCC(=O)NC2=O)C3=O)c1 (centres unmarked) [Example 21, 3-(5-(4-(((2-(dimethylamino)ethyl) (methyl)amino)methyl)pyridin-2-yl)-1-oxoisoindolin-2-yl)piperidine-2,6-dione]
93 | 94 | > 10000 | 28 |  | O=C1CCC(N2Cc3cc(-c4cc(CNCCCCO)ccn4)ccc3C2=O)C(=O)N1 (centres unmarked) [Example 128, 3-(5-(4-(((4-hydroxybutyl)amino)methyl)pyridin-2-yl)-1-oxoisoindolin-2-yl)piperidine-2,6-dione]
> 10000 | 0 | > 10000 | 0 |  | O=C1CCC(N2Cc3cc(-c4cc(CN5CCN(c6ccncc6)CC5)ccn4)ccc3C2=O)C(=O)N1 (centres unmarked) [Example 25, 3-(1-oxo-5-(4-((4-(pyridin-4-yl)piperazin-1-yl)methyl)pyridin-2-yl)isoindolin-2-yl)piperidine-2,6-dione]
29 | 100 | > 10000 | 12 |  | O=C1CCC(N2Cc3cc(-c4cc(CNC5CCCCC5)ccn4)ccc3C2=O)C(=O)N1 (centres unmarked) [Example 87, 3-(5-(4-((cyclohexylamino)methyl)pyridin-2-yl)-1-oxoisoindolin-2-yl) piperidine-2,6-dione]
25 | 88 | > 10000 | 12 |  | CCNCc1ccnc(-c2ccc3c(c2)CN(C2CCC(=O)NC2=O)C3=O)c1 (centres unmarked) [Example 116, 3-(5-(4-((ethylamino)methyl)pyridin-2-yl)-1-oxoisoindolin-2-yl)piperidine-2,6-dione]
317 | 80 | > 10000 | 4 |  | CN(CCc1ccccc1)Cc1ccnc(-c2ccc3c(c2)CN(C2CCC(=O)NC2=O)C3=O)c1 (centres unmarked) [Example 171, 3-(5-(4-((methyl(phenethyl)amino)methyl)pyridin-2-yl)-1-oxoisoindolin-2-yl)piperidine-2,6-dione]

Source: patent US11548870B2, “Compounds useful as inhibitors of helios protein” (Bristol-Myers Squibb Company, priority 2019, dated 2023)
